According to US8673906B2, “Chromenone derivatives” (AstraZeneca AB, priority 2010, dated 2014):
Read-outs that look alike come from different tables or passages of the source.

How the values were obtained:
[1] = tested on: phospho AKT (ser473) in MAD-MB-468 cells; assay: Detection of phospho AKT (ser473) in MAD-MB-468 cells; format: cell-based, human; conditions: Test (b)
Method: (b) Protocol for Detection of Phospho AKT (Ser473) in MAD-MB-468 Cells
MDA-MB-468 cells (human breast adenocarcinoma ATCC HTB 132) are seeded into Greiner 384 well black flat-bottomed plates by automated cell culture robot (Selec T). Cells can also be maintained manually and seeded into plates using multidrop or Wellmate. Cells seeded at 1500 cell/well in 40 μl of DMEN containing 10% FCS and 1% glutamine. Cell plates are incubated for 18 hours in a 37° C. incubator.
Compounds are dosed onto cells using an Echo acoustic dispenser, which dispenses nl quantities of compound or DMSO. Compounds are dosed in a 12 point concentration range from 30 μM top dose, 28 compounds are dosed on one plate. There are 17 DMSO only positive control wells per plate, and 16 negative control well which have been dosed with a concentration of reference compound that will knockout the pAKT signal.
Plates are incubated at 37° C. for 2 hours, cells are the fixed by the addition of 10 μl of a 3.7% Formaldehyde solution in a fume cupboard using a Wellmate.
After 30 minutes to allow for fixation, the fixative and media are removed and the plates washed with Proclin PBS/A using Tecan PW384 plate washer in a fume cupboard. Wells are blocked and permeabilised with the addition of 40 μl of PBS containing 0.5% Tween20 and 1% marvel using a Wellmate and incubated for 60 minutes at room temperature.
Permeabilisation and blocking buffer removed using Tecan PW384 plate washer, then 20 μl primary antibody solution added using a Wellmate. The primary antibody solution is a 1:500 dilution of Rabbit anti-phospho AKT Ser 473 (Cell signalling technologies catalogue number #3787) in PBS/T containing 1% marvel (dried milk powder) and incubated overnight at 4° C.
Plates are washed using a Tecan PW384 plate washer three times with Phosphate Buffered Saline+0.05% (v/v) Polysorbate20 and Proclin300 (Supelco). 20 μl of secondary antibody solution is then added to each well using a Wellmate and incubated for 1 hour at Room Temp. The secondary antibody solution is a 1:1000 dilution of Alexa Fluor 488 anti-Rabbit (Molecular Probes cat no A11008) diluted in Phosphate Buffered Saline+0.05% (v/v) Polysorbate20 containing 1% marvel. Plates are washed three times as before then 20 μl PBS added to each well and plates sealed with black plate sealer.
The plates are read on an Acumen reader as soon as possible. Using this system IC50 values can be generated and quality of plates determined by control wells. Reference compounds are run each time to monitor assay performance.

[2] = target: PI3Kβ (Homo sapiens (Human), UniProt P42338); assay: In vitro enzyme inhibition assay (Kinase Glo based enzyme activity assay); format: biochemical; conditions: Test (a)
Chain of PI3Kβ (P42338 whole entry): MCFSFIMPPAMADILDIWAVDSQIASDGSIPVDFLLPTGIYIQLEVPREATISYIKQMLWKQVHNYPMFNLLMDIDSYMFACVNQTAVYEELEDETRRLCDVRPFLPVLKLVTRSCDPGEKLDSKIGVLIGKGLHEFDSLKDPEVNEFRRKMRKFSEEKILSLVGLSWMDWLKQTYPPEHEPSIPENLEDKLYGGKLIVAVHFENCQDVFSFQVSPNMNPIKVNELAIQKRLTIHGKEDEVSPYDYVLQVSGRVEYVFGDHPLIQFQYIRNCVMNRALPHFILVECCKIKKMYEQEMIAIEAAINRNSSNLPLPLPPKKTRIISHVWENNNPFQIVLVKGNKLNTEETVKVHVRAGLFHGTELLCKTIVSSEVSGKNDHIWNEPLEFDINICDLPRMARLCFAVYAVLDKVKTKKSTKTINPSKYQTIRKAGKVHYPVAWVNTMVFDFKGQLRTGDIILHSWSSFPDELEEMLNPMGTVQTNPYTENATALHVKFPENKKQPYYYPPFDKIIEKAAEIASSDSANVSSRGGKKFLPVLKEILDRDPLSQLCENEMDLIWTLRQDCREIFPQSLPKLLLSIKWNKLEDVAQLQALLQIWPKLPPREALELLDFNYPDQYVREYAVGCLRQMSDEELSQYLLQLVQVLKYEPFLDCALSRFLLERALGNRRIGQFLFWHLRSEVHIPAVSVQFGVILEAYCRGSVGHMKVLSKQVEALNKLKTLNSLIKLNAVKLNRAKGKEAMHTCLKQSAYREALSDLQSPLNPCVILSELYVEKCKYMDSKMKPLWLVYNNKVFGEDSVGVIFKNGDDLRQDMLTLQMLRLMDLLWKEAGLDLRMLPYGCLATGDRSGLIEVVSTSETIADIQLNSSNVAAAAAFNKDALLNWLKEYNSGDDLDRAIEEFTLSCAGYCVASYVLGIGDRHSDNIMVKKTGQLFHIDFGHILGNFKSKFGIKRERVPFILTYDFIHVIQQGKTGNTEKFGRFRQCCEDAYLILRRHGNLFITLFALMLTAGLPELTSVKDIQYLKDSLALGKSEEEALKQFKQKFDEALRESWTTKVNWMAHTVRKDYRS
Chain of PI3Kβ (P27986 whole entry partner): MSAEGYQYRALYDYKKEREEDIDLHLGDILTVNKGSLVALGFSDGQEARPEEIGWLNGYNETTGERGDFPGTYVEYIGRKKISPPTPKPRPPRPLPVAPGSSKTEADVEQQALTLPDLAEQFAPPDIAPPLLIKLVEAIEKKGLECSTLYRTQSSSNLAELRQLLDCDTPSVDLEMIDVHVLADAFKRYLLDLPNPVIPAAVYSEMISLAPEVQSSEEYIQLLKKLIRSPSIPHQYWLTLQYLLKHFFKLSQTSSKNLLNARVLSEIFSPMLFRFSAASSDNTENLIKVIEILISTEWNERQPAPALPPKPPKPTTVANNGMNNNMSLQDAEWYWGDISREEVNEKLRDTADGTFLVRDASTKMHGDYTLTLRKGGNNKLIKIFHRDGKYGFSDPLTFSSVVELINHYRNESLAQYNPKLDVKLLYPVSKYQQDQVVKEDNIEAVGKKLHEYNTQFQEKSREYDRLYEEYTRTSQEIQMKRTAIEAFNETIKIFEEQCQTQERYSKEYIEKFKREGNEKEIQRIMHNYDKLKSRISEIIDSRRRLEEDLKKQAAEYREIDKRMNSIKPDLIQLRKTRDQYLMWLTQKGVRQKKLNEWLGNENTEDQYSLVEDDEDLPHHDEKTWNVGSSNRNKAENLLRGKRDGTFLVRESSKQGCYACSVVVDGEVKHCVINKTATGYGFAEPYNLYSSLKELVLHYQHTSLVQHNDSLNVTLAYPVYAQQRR
Outline: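 ATP depletion by recombinant human PI3Kβ measured with Kinase-Glo luminescence after an 80 min reaction (final 80 μM ATP, 80 μM PIP2, 1% DMSO) in Tris pH 7.4 buffer with CHAPS, DTT and MgCl2, following 20 min enzyme–compound preincubation. Twelve concentrations fitted by non-linear regression for IC50.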

[3] = Homo sapiens, approximate value, read-out: IC50 versus cellular phospho AKT (ser473) in MAD-MB-468 cells
[4] = Homo sapiens, mean IC50 value calculated from a larger number of replicates, read-out: IC50 versus cellular phospho AKT (ser473) in MAD-MB-468 cells (value in brackets)
[5] = approximate value, read-out: IC50 versus PI3Kβ
[6] = human recombinant enzyme, read-out: PI3Kβ inhibition, IC50
[7] = approximate value, read-out: IC50 versus cellular phospho AKT (ser473) in MAD-MB-468 cells

Structure (SMILES)	IC50 [1, 3] [nM]	IC50 [1, 4] [nM]	IC50 [2, 5] [nM]	IC50 [2, 6] [nM]	IC50 [1, 7] [nM]
CC(Nc1ccc(F)c(F)c1)c1cc(C(=O)N(C)C)cc2c(=O)cc(N3CCOCC3)oc12 (racemic) [Example 3.03, 8-(1-(3,4-difluorophenylamino)ethyl)-N,N-dimethyl-2-morpholino-4-oxo-4H-chromene-6-carboxamide]	~35	~37	~9	9	–
CC(Nc1cccc(Cl)c1F)c1cc(C(=O)N(C)C)cc2c(=O)cc(N3CCOCC3)oc12 (racemic) [Example 3.04, 8-(1-(3-chloro-2-fluorophenylamino)ethyl)-N,N-dimethyl-2-morpholino-4-oxo-4H-chromene-6-carboxamide]	~12	–	~11	11	–
CC(Nc1cc(F)cc(F)c1)c1cc(C(=O)N(C)C)cc2c(=O)cc(N3CCOCC3)oc12 (racemic) [Example 3.06, 8-(1-(3,5-difluorophenylamino)ethyl)-N,N-dimethyl-2-morpholino-4-oxo-4H-chromene-6-carboxamide]	~9	–	–	–	–
CC(Nc1cc(F)cc(F)c1)c1cc(C(=O)N(C)C)cc2c(=O)cc(N3CCOCC3)oc12 (single isomer, unassigned) [Example 3.06a, 8-(1-(3,5-difluorophenylamino)ethyl)-N,N-dimethyl-2-morpholino-4-oxo-4H-chromene-6-carboxamide]	–	–	–	–	~13500
CC(Nc1cc(F)cc(F)c1F)c1cc(C(=O)N(C)C)cc2c(=O)cc(N3CCOCC3)oc12 (single isomer, unassigned) [Example 3.13a, N,N-dimethyl-2-morpholino-4-oxo-8-(1-(2,3,5-trifluorophenylamino)ethyl)-4H-chromene-6-carboxamide]	~4300	–	~4500	4540	–
CC(c1cc(C(=O)N(C)C)cc2c(=O)cc(N3CCOCC3)oc12)N(C)c1cc(F)cc(F)c1 (single isomer, unassigned) [Example 5.0a, 8-(1-((3,5-difluorophenyl)(methyl)amino)ethyl)-N,N-dimethyl-2-morpholino-4-oxo-4H-chromene-6-carboxamide]	~15	–	–	–	–
CC(Nc1cc(F)cc(F)c1)c1cc(C(=O)N(C)C)cc2c(=O)cc(N3CCOCC3)oc12 (single isomer, unassigned; (-)) [Example 3.06b, (−)-8-(1-(3,5-difluorophenylamino)ethyl)-N,N-dimethyl-2-morpholino-4-oxo-4H-chromene-6-carboxamide]	–	~3	–	–	~5
CC(Nc1ccc(F)cc1)c1cc(C(=O)NCCN(C)C)cc2c(=O)cc(N3CCOCC3)oc12 (centres unmarked) [Example 1.00, N-(2-(dimethylamino)ethyl)-8-(1-(4-fluorophenylamino)ethyl)-2-morpholino-4-oxo-4H-chromene-6-carboxamide]	~9	–	~2	2	–
CC(Nc1cccc(Cl)c1F)c1cc(C(=O)N(C)CCO)cc2c(=O)cc(N3CCOCC3)oc12 (centres unmarked) [Example 2.05, 8-(1-(3-chloro-2-fluorophenylamino)ethyl)-N-(2-hydroxyethyl)-N-methyl-2-morpholino-4-oxo-4H-chromene-6-carboxamide]	~17	–	~5	5	–
CC(c1cc(C(=O)N(C)C)cc2c(=O)cc(N3CCOCC3)oc12)N(C)c1ccc(F)cc1 (centres unmarked) [Example 3.07, 8-(1-((4-fluorophenyl)(methyl)amino)ethyl)-N,N-dimethyl-2-morpholino-4-oxo-4H-chromene-6-carboxamide]	~580	–	~29	–	–
CC(Nc1cc(F)c(F)c(F)c1)c1cc(C(=O)N(C)C)cc2c(=O)cc(N3CCOCC3)oc12 (centres unmarked) [Example 3.11, N,N-dimethyl-2-morpholino-4-oxo-8-(1-(3,4,5-trifluorophenylamino)ethyl)-4H-chromene-6-carboxamide]	~27	–	–	–	–
CC(Nc1cc(F)cc(F)c1)c1cc(C(=O)N2CCCC2)cc2c(=O)cc(N3CCOCC3)oc12 (centres unmarked) [Example 4.02, 8-(1-(3,5-difluorophenylamino)ethyl)-2-morpholino-6-(pyrrolidine-1-carbonyl)-4H-chromen-4-one]	~1	~2	~4	4	–
CC(c1cc(C(=O)N(C)C)cc2c(=O)cc(N3CCO[C@H](C)C3)oc12)N(C)c1cc(F)cc(F)c1 (stereo partly drawn) [Example 10.01, 8-(1-((3,5-difluorophenyl)(methyl)amino)ethyl)-N,N-dimethyl-2-((R)-2-methylmorpholino)-4-oxo-4H-chromene-6-carboxamide]	–	–	–	12	–
CC(c1cc(C(=O)N(C)CCO)cc2c(=O)cc(N3CCO[C@H](C)C3)oc12)N(C)c1cc(F)cc(F)c1 (stereo partly drawn) [Example 10.02, 8-(1-((3,5-difluorophenyl)(methyl)amino)ethyl)-N-(2-hydroxyethyl)-N-methyl-2-((R)-2-methylmorpholino)-4-oxo-4H-chromene-6-carboxamide]	–	–	–	11	–
CC(c1cc(C(=O)N2CCC(O)CC2)cc2c(=O)cc(N3CCO[C@H](C)C3)oc12)N(C)c1cc(F)cc(F)c1 (stereo partly drawn) [Example 10.03, 8-(1-((3,5-difluorophenyl)(methyl)amino)ethyl)-6-(4-hydroxypiperidine-1-carbonyl)-2-((R)-2-methylmorpholino)-4H-chromen-4-one]	–	–	–	9	–
CC(Nc1cc(F)cc(F)c1)c1cc(C(=O)N(C)C)cc2c(=O)cc(N3CCOC[C@@H]3C)oc12 (stereo partly drawn) [Example 11.00, 8-(1-(3,5-difluorophenylamino)ethyl)-N,N-dimethyl-2-((S)-3-methylmorpholino)-4-oxo-4H-chromene-6-carboxamide]	–	–	–	21	–
